{
  "source": "patent US12472193B2",
  "about": "“Methods and compositions for treating and preventing respiratory related diseases and conditions with xylitol-headgroup lipid analogs” (National Jewish Health, priority 2017, dated 2025)",
  "key": {"[1]": {"test_system": "RSV", "experiment": "Binding of RSV to solid phase phospholipid", "design": "species or system human RSV A2 strain", "conditions": "0.625 nmol lipid, 37° C., 1 hour", "method": "Lipids were dried under a stream of nitrogen and resuspended in 100% ethanol, and 0.625 nmol was added in a 40 μL volume to each well of a half-area, 96-well plate. The solvent was evaporated under warm air for 90 minutes. 120 μL of blocking solution (150 mM NaCl, 20 mM Tris pH 7, 5 mM CaCl2) containing 3% BSA w/v) was added to each well and incubated for 1 hour at room temperature. Wells were washed 3 times with (150 mM NaCl, 20 mM Tris pH 7, 5 mM CaCl2)) followed by the addition of 40 μL of serial dilutions of RSV (2.5×10^7, 1.25×10^7, 0.625×10^7, 0.3125×10^7, 0.15625×10^7 pfu/mL) in blocking solution to each well and the plate was incubated at 37° C. for 1 hour. The wells were washed 3 times and 40 μL of α-RSV:HRP antibody diluted 1:500 was added and incubated at 37° C. for 1 hour. After washing out the primary antibody, the peroxidase activity was detected with the substrate o-phenylenediamine and the absorbance read at 490 nm to detect degree of binding.\nA quantitative plaque assay takes a week to develop without accounting for maintenance of cells. In order to determine the mechanism of antiviral action of PX analogs and explore a faster assay that could easily be mass-produced, lipids were assessed for their ability to bind RSV. A solid phase of 0.625 nmol of lipid was dried onto a 96-well plate. Binding of fluid-phase RSV to the lipids was assessed at viral concentrations of 8×105 to 2.5×10^7 pfu/mL, at 37° C. for 1 hour. Viral binding was detected with a primary anti-RSV antibody conjugated to HRP. The peroxidase reaction was developed with o-phenylenediamine and absorbance measurement at 490 nm."}, "[2]": {"target": "T1, TLR 9 (Mus musculus, UniProt Q9EQU3)", "T1 construct": "RAW264.7 cells secrete TNF-α in response to the TLR9 agonist CpG; endogenous in cells; host or cells: RAW264.7 (ATCC)", "T1 sequence (Q9EQU3 26-1032)": "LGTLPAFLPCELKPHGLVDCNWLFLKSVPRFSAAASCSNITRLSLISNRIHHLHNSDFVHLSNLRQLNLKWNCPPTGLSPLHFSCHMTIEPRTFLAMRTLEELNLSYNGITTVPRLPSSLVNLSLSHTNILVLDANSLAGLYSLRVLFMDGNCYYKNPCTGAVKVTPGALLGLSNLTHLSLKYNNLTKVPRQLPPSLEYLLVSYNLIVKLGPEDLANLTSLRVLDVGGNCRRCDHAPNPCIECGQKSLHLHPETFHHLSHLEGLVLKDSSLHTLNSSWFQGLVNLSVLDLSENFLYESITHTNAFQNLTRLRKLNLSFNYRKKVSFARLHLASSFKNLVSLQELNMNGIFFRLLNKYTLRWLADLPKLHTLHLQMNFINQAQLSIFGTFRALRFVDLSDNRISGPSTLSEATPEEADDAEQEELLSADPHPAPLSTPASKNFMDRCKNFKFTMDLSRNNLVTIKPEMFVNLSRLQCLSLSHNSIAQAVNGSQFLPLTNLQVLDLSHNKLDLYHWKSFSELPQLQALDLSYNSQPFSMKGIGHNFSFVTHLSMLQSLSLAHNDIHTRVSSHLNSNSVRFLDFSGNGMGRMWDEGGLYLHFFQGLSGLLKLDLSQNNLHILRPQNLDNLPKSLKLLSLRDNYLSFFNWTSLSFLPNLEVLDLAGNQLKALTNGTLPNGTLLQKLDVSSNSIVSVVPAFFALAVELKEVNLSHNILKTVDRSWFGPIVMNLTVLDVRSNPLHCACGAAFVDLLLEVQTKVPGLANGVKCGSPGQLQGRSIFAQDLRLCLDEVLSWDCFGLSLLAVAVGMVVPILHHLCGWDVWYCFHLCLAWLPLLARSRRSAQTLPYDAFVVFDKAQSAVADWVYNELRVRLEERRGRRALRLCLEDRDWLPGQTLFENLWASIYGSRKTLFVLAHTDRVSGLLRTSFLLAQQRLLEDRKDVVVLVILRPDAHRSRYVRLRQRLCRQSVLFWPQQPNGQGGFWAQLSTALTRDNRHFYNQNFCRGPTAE", "experiment": "CpG-induced TNFα secretion by RAW264.7 cells (TLR 9 antagonism)", "type": "cell-based", "conditions": "for antagonism of TLR 9 activation (TNFα secretion): 5 μg/mL CpG, 100 μg/mL phospholipid, 5.5 hours; for TLR9 antagonist activity: reduction in cytokine secretion vs activating TLR ligand alone", "method": "The mouse macrophage cell line, RAW264.7, was obtained from ATCC and maintained in DMEM, supplemented with 10% bovine growth serum and 1× penicillin streptomycin. Cells were maintained at 37° C. with 5% carbon dioxide: 95% air atmosphere within the incubator. Experiments were completed in a 96-well plate where cells were seated at a density of 1×10^5 cells per well, 24 prior to stimulation with TLR agonists and antagonists. Lipids were dried under a stream of nitrogen, hydrated with phosphate-buffered saline (PBS) at 37° C. for one hour, followed by water bath sonication to create liposomes. Each condition for cell stimulation and antagonism was prepared in DMEM in a separate tube and consisted of: control, TLR agonist, TLR agonist+lipid, and lipid alone. 100 μL aliquots of medium+agonists+antagonists were added to each well and incubated at 37° C. for 4 hours. Subsequently, the media were collected, diluted and an enzyme-linked immunosorbent assay (ELISA) was performed to quantify TNFα release by cells.\nTLR 9 is another member of the intracellular TLRs found in the endosomal compartment. It detects unmethylated CpG sequences in DNA molecules commonly found among bacteria and DNA viruses (H. Hemmi, et al., “A Toll-like receptor recognizes bacterial DNA.,” Nature, vol. 408, no. 6813, pp. 740-5, December 2000; J. Lund, et al, “Toll-like receptor 9-mediated recognition of Herpes simplex virus-2 by plasmacytoid dendritic cells.,” J. Exp. Med., vol. 198, no. 3, pp. 513-20, August 2003). To test antagonism activity of PX lipids against TLR 9, RAW264.7 cells were stimulated for 5.5 hours with 5 μg/mL CpG in the absence or presence of 100 μg/mL phospholipid. […] The action of CpG is not affected by POPC, POPG, or many of the xylitol phospholipids, such as 14:0 DEPX, DSPX and 18:1 DEPX."}},
  "note": "Entries after “also recorded” stand apart in the source; their conditions may differ.",
  "data": [
    {"compound": "CCCCCCCCCCCCCCCCCC(=O)OCC(COP(=O)(O)OCC(O)C(O)C(O)CO)OC(=O)CCCCCCCCCCCCCCCCC", "note": "(stereo not drawn) [DSPX, sn-1-stearoyl, sn-2-stearoyl sn-3 glycerol phosphoxylitol]", "values": [
      {"measurement": "binding of solid phase lipid to RSV", "setting": "[1]", "value": "bound strongly"},
      {"measurement": "antagonism of TLR 9 activation (TNFα secretion)", "setting": "[2]", "value": "not affected"}
    ]},
    {"compound": "CCCCCCCCCCCCCCCC(=O)OCC(COP(=O)(O)OCC(O)C(O)C(O)CO)OC(=O)CCCCCCCCCCCCCCC", "note": "(stereo not drawn) [DPPX, sn-1-palmitoyl, sn-2-palmitoyl sn-3 glycerol phosphoxylitol]", "values": [
      {"measurement": "binding of solid phase lipid to RSV", "setting": "[1]", "value": "bound strongly"}
    ]},
    {"compound": "CCCCCCC=CCCCCCCCC(=O)OCC(COP(=O)(O)OCC(O)C(O)C(O)CO)OC(=O)CCCCCCCC=CCCCCCC", "note": "(mixture of isomers) [16:1 DPPX, sn-1-palmitoleoyl, sn-2-palmitoleoyl sn-3 glycerol phosphoxylitol]", "values": [
      {"measurement": "binding of solid phase lipid to RSV", "setting": "[1]", "value": "only bind weakly"}
    ]},
    {"compound": "CCCCCCCCCCCCCCOC[C@H](COP(=O)(O)OCC(O)C(O)C(O)CO)OCCCCCCCCCCCCCC", "note": "(mixture of isomers) [14:0 DEPX, sn-1-O-myristyl, sn-2-O-myristyl sn-3 glycerol phosphoxylitol]", "values": [
      {"measurement": "binding of solid phase lipid to RSV", "setting": "[1]", "value": "bound to the RSV virus strongly"},
      {"measurement": "antagonism of TLR 9 activation (TNFα secretion)", "setting": "[2]", "value": "not affected"}
    ]},
    {"compound": "CCCCCCCCC=CCCCCCCCCOCC(COP(=O)(O)OCC(O)C(O)C(O)CO)OCCCCCCCCC=CCCCCCCCC", "note": "(mixture of isomers) [18:1 DEPX, sn-1-O-octadecenyl, sn-2-O-octadecenyl sn-3 glycerol phosphoxylitol]", "values": [
      {"measurement": "binding of solid phase lipid to RSV", "setting": "[1]", "value": "affinity comparable to that of POPG"},
      {"measurement": "antagonism of TLR 9 activation (TNFα secretion)", "setting": "[2]", "value": "not affected"}
    ]},
    {"compound": "CCCCCCCCCCCCCC(=O)OC[C@H](COP(=O)(O)OCC(O)C(O)C(O)CO)OC(=O)CCCCCCCCCCCCC", "note": "(mixture of isomers) [DMPX, sn-1-myristoyl, sn-2-myristoyl sn-3 glycerol phosphoxylitol]", "values": [
      {"measurement": "binding of solid phase lipid to RSV", "setting": "[1]", "value": "bound strongly"},
      {"measurement": "antagonism of TLR 9 activation (TNFα secretion)", "setting": "[2]", "value": "acts as an agonist for TLR9 activation"}
    ]},
    {"compound": "CCCCCC=CCC=CCCCCCCCC(=O)OCC(COP(=O)(O)OCC(O)C(O)C(O)CO)OC(=O)CCCCCCCC=CCC=CCCCCC", "note": "(mixture of isomers) [18:2 DLPX, sn-1-linoleoyl, sn-2-linoleoyl sn-3 glycerol phosphoxylitol]", "values": [
      {"measurement": "binding of solid phase lipid to RSV", "setting": "[1]", "value": "only bind weakly"},
      {"measurement": "antagonism of TLR 9 activation (TNFα secretion)", "setting": "[2]", "value": "effective against TLR 9 activation; also recorded: only effective antagonists of TLR 9 activation"},
      {"measurement": "TLR9 antagonist activity", "setting": "[2]", "value": "+ (cutoff being greater than a 50% reduction in cytokine secretion compared to activating TLR ligand alone)"}
    ]},
    {"compound": "CCCCCCCC/C=C\\CCCCCCCC(=O)O[C@H](COC(=O)CCCCCCCCCCCCCCC)COP(=O)(O)OCC(O)CO", "note": "(stereo partly drawn) [POPG, palmitoyl-oleoyl-phosphatidylglycerol, reference compound]", "values": [
      {"measurement": "antagonism of TLR 9 activation (TNFα secretion)", "setting": "[2]", "value": "not affected"}
    ]},
    {"compound": "CCCCCCCC/C=C\\CCCCCCCC(=O)O[C@H](COC(=O)CCCCCCCCCCCCCCC)COP(=O)(O)OCC(O)C(O)C(O)CO", "note": "(stereo partly drawn) [POPX, sn-1-palmitoyl, sn-2-oleoyly sn-3 glycerol phosphoxylitol]", "values": [
      {"measurement": "binding of solid phase lipid to RSV", "setting": "[1]", "value": "affinity comparable to that of POPG"},
      {"measurement": "antagonism of TLR 9 activation (TNFα secretion)", "setting": "[2]", "value": "reduce the TNF-α secretion to control levels; also recorded: inhibits; also recorded: effective against TLR 9 activation; also recorded: only effective antagonists of TLR 9 activation"},
      {"measurement": "TLR9 antagonist activity", "setting": "[2]", "value": "+ (cutoff being greater than a 50% reduction in cytokine secretion compared to activating TLR ligand alone)"}
    ]},
    {"compound": "CCCCCCCCC=CCCCCCCCC(=O)OCC(COP(=O)(O)OCC(O)C(O)C(O)CO)OC(=O)CCCCCCCC=CCCCCCCCC", "note": "(mixture of isomers) [DOPX, sn-1-oleoyl, sn-2-oleoyl sn-3 glycerol phosphoxylitol]", "values": [
      {"measurement": "binding of solid phase lipid to RSV", "setting": "[1]", "value": "only bind weakly"},
      {"measurement": "antagonism of TLR 9 activation (TNFα secretion)", "setting": "[2]", "value": "reduce the TNF-α secretion to control levels; also recorded: inhibits; also recorded: effective against TLR 9 activation; also recorded: only effective antagonists of TLR 9 activation"},
      {"measurement": "TLR9 antagonist activity", "setting": "[2]", "value": "+ (cutoff being greater than a 50% reduction in cytokine secretion compared to activating TLR ligand alone)"}
    ]},
    {"compound": "CCCCCCCC/C=C\\CCCCCCCC(=O)O[C@H](COC(=O)CCCCCCCCCCCCCCC)COP(=O)([O-])OCC[N+](C)(C)C", "note": "[POPC, 1-palmitoyl-2-oleoyl-sn-glycero-3-phosphocholine, reference compound]", "values": [
      {"measurement": "antagonism of TLR 9 activation (TNFα secretion)", "setting": "[2]", "value": "not affected"}
    ]}
  ]
}
